Measurements published in patent US3980794A, “Method for promoting growth of poultry with 3-(5-nitro-2-imidazolyl)pyrazoles” (Eli Lilly and Company, priority 1975, dated 1976).
In brackets after ≈: the same amount, converted by molar mass. Where two headings read alike, the source gives them in different places.

Assays:
Treponema hyodysenteriae [1] = assay: In vitro activity against Treponema hyodysenteriae (Experiment 8); assay type: cell-based; settings: Brachyspira hyodysenteriae; repeat test, doubling dilutions 100 to 0.048 mcg./ml.; read-out: minimum inhibitory concentration (MIC)
Method: A number of representative compounds, namely, 1, 5, 6, 7, 12, 13D, 14, and 18, were tested for their in vitro activity against Treponema hyodysenteriae. The treponema were propagated on blood agar plates. Each plate which was prepared contained 20 ml. of trypticase soy agar (Baltimore Biological Laboratory [BBL]) with 5.0 g./l. of yeast extract (Difco) and 5 percent sterile defibrinated horse blood. The plates were sterile plastic 15 × 100 mm. petri plates. Incubation was carried out at 37°C. for 4 days under anaerobic conditions using the BBL Gas Pak system.
The concentrations of test compounds in this initial test were prepared in dilutions ranging from 2000 mcg./ml. to 7.8 mcg./ml. The test procedure was carried out in the following manner. Five ml. of a twenty-fold concentration in tryptose broth (Difco) of each filter-sterilized test compound dilution was mixed in a series of flasks containing 90 ml. of melted trypticase soy agar with yeast extract. Five ml. of horse blood was then added per flask. The contents of these flasks were then used to prepare a series of blood agar plates in doubling decreasing dilutions ranging from 100 mcg./ml. to 0.39 mcg./ml.
The treponema for inoculation of these plates were obtained by adding 3.0 ml. of sterile tryptose broth to the surface of a plate on which the treponema had been propagated. […]

Aeromonas liquefaciens = assay: In vitro activity against fish bacterial pathogens, tube dilution (Experiment 13); settings: Aeromonas hydrophila, read-out: minimum inhibitory concentration (MIC), Aeromonas liquetaciens
P. multocida = assay: Oral activity against P. multocida in turkeys (Experiment 5B); assay type: in vivo; settings: 100 g./ton in feed
Salmonella typhimurium = assay: Activity against Salmonella typhimurium in chicks when administered in the feed (Experiment 4); assay type: in vivo; settings: for Final Avg. Chicken Wt.: tenth day
Method: The activity of certain of the nitroimidazoles against Salmonella typhimurium in chicks when administered in the feed was determined.
One-day-old chicks, divided into groups of 12, were given compound 1, 6, or 7 in the feed at levels of 100 g. per ton, 50 g. per ton, 25 g. per ton, and 10 g. per ton continuously throughout the experiments. Several replicates of nonmedicated infected control groups were included. Later on day 1, all replicates were given 50.0 ml. of a tryptose broth culture of S. typhimurium as their initial liquid for drinking. This was placed in the cage waterer and served as the challenge.
Daily records of mortality were maintained and survivors were weighed on the tenth day of the experiment, the day of termination. The compounds tested are identified by the numbers 1, 6, and 7, as set forth hereinabove. In the chart, column 1 lists the test compound; column 2, the dosage level of test compound in grams per ton of feed; column 3 lists the number of replicates run on each compound at each dosage level; column 4 lists the survival ratio; and column 5, the final average chicken weight.

Pseudomonas sp. = assay: In vitro activity against fish bacterial pathogens, tube dilution (Experiment 13); assay type: cell-based; settings: tryptose broth, overnight, 37°C., read-out: minimum inhibitory concentration (MIC), Pseudomonas
[2] = Growth promotion efficacy in broiler chicks (Experiment 7); assay type: in vivo; settings: for F/G (feed conversion) / Wt. Gn. (average weight gain) / % Impr. in feed conversion / % Impr. in weight gain: 21 days; for % Impr. in feed conversion / % Impr. in weight gain: compared to contemporary control
Source text: 5-Amino-1-methyl-3-(1-methyl-5-nitro-2-imidazolyl)pyrazole-4-carbonitrile, compound 1, was fed to broiler chicks to evaluate its growth promotion efficacy.
The compound was fed at levels of 10, 25 and 50 g./ton of typical broiler rations (set forth below) to a total of 120 replicates of 8 birds each in four time-replicated studies.
All the birds in the tests were pre-brooded for seven days in floor pens before being placed on treatment. The treatment period extended for 21 days in starter batteries. Feed and water were provided ad libitum at all times. A nontreated feed was fed during the pre-brood period.
The results of the studies are presented in Chart 8. In the chart, column 1 gives the identification of the test compound; column 2, the level of administration of the test compound in the feed; column 3, the number of replicates per treatment; column 4, the average weight gain in grams; column 5, the percent improvement in weight gain; column 6, the feed conversion, which is the ratio of the feed consumed (F) to the weight gained (G); and column 7, the percent improvement in feed conversion.
All 10 and 50 g. data were obtained using Diet 1. The 25 g. data were obtained using Diet 1 (25%) and Diet 2 (75%).

Treponema hyodysenteriae [3] = test system: Treponema hyodysenteriae
[4] = 25 g./t. fed, Diet 1 (25%) and Diet 2 (75%)
[5] = 100 g./ton in feed, all medicated pigs

## Cn1nc(-c2ncc([N+](=O)[O-])n2C)c(C#N)c1N [Compound 1, 5-Amino-1-methyl-3-(1-methyl-5-nitro-2-imidazolyl)pyrazole-4-carbonitrile]
Treponema hyodysenteriae [1]
  MIC: 0.097 µg/mL (≈ 0.392 µM)
Aeromonas liquefaciens
  MIC: 3.12 µg/mL (≈ 12.6 µM)
P. multocida
  Culture Isolation P. multocida: 0/5
  Survival Ratio: 5/5
Salmonella typhimurium; 10 g./ton in feed
  Survival Ratio: 28/36
  Final Avg. Chicken Wt.: 97 g
Salmonella typhimurium; 25 g./ton in feed
  Survival Ratio: 36/36
  Final Avg. Chicken Wt.: 121 g
Salmonella typhimurium; 50 g./ton in feed
  Survival Ratio: 36/36
  Final Avg. Chicken Wt.: 116 g
Salmonella typhimurium; 100 g./ton in feed
  Survival Ratio: 35/36
  Final Avg. Chicken Wt.: 105 g
Pseudomonas sp.
  MIC: 6.25 µg/mL (≈ 25.3 µM)
[2]; 10 g./t. fed, Diet 1
  F/G (feed conversion): 1.580
  Wt. Gn. (average weight gain): 580 g
[2]; 10 g./t. fed
  % Impr. in feed conversion: 2.35%
  % Impr. in weight gain: 4.50%
[2]; [4]
  F/G (feed conversion): 1.751
  Wt. Gn. (average weight gain): 468 g
[2]; 25 g./t. fed
  % Impr. in feed conversion: 4.68%
  % Impr. in weight gain: 6.12%
[2]; 50 g./t. fed, Diet 1
  F/G (feed conversion): 1.578
  Wt. Gn. (average weight gain): 564 g
[2]; 50 g./t. fed
  % Impr. in feed conversion: 4.54%
  % Impr. in weight gain: 3.87%
[2]; oral to chicks, compound 1 at about 10 to about 50 g. per ton of feed
  growth promoter effectiveness: effective as a growth promoter
Treponema hyodysenteriae [3]; 100 g./ton in feed
  blood and/or mucus in the colon at necropsy: not found in the colon of any pig
Treponema hyodysenteriae [3]; 100 g./ton in feed, Group 1
  Days with Blood and Mucus in Pen: 0
  Days with Diarrhea in Pen: 0
  Initial Wt. (at time of challenge): 35.3
  Mortality (No. Died): 0
Treponema hyodysenteriae [3]; 100 g./ton in feed, Group 1, day 7
  Avg. Wt. of Pigs, Survivors: 43.3
Treponema hyodysenteriae [3]; 100 g./ton in feed, Group 1, day 14
  Avg. Wt. of Pigs, Survivors: 51.0
Treponema hyodysenteriae [3]; 100 g./ton in feed, Group 1, day 19
  Avg. Wt. of Pigs, Survivors: 57.3
Treponema hyodysenteriae [3]; 100 g./ton in feed, Group 1, killed 19 days post-challenge
  Avg. Gain (Survivors) From Day Of Challenge: 22.0 lb.
Treponema hyodysenteriae [3]; 100 g./ton in feed, Group 2
  Days with Blood and Mucus in Pen: 0
  Days with Diarrhea in Pen: 0
  Initial Wt. (at time of challenge): 35.3
  Mortality (No. Died): 0
Treponema hyodysenteriae [3]; 100 g./ton in feed, Group 2, day 7
  Avg. Wt. of Pigs, Survivors: 42.1
Treponema hyodysenteriae [3]; 100 g./ton in feed, Group 2, day 14
  Avg. Wt. of Pigs, Survivors: 50.0
Treponema hyodysenteriae [3]; 100 g./ton in feed, Group 2, day 21
  Avg. Wt. of Pigs, Survivors: 59.7
Treponema hyodysenteriae [3]; 100 g./ton in feed, Group 2, day 28
  Avg. Wt. of Pigs, Survivors: 71.2
Treponema hyodysenteriae [3]; 100 g./ton in feed, Group 2, killed 28 days post-challenge
  Avg. Gain (Survivors) From Day Of Challenge: 35.9 lb.
Treponema hyodysenteriae [3]; [5]
  deaths during the trial: None of the pigs receiving the test compound died
  diarrhea: not detected
Treponema hyodysenteriae [3]; 100 g./ton in feed, whole trial
  mucus and blood in feces: not observed at any time during the trial
Treponema hyodysenteriae [3]; 100 g./ton in feed, overall conclusion
  control of induced swine dysentery: highly effective
Treponema hyodysenteriae [3]; compound 1 in the feed about 100 g./ton
  control of Treponema hyodysenteriae in swine: effective in the control of Treponema hyodysenteriae in swine
Treponema hyodysenteriae [3]; pig, in vivo
  slight areas of hemorrhage in the colon and/or stomach: seen in most of the pigs
Treponema hyodysenteriae [3]; replicate 2, unmedicated ration day 17 until day 28
  recurrence of swine dysentery: not observed

## COC=Nc1c(C#N)c(-c2ncc([N+](=O)[O-])n2C)nn1C [Compound 6, Methyl N-[4-cyano-1-methyl-3-(1-methyl-5-nitro-2-imidazolyl)pyrazol-5-yl]formimidate]
P. multocida
  Culture Isolation P. multocida: 0/5
  Survival Ratio: 5/5
Salmonella typhimurium; 10 g./ton in feed
  Survival Ratio: 33/36
  Final Avg. Chicken Wt.: 110 g
Salmonella typhimurium; 25 g./ton in feed
  Survival Ratio: 36/36
  Final Avg. Chicken Wt.: 119 g
Salmonella typhimurium; 50 g./ton in feed
  Survival Ratio: 35/36
  Final Avg. Chicken Wt.: 125 g
Salmonella typhimurium; 100 g./ton in feed
  Survival Ratio: 33/36
  Final Avg. Chicken Wt.: 101 g

## CCCCOC=Nc1c(C#N)c(-c2ncc([N+](=O)[O-])n2C)nn1C [Compound 7, Butyl N-[4-Cyano-1-methyl-3-(1-methyl-5-nitro-2-imidazolyl)-pyrazol-5-yl]formimidate]
P. multocida
  Culture Isolation P. multocida: 0/5
  Survival Ratio: 5/5
Salmonella typhimurium; 10 g./ton in feed
  Survival Ratio: 25/36
  Final Avg. Chicken Wt.: 100 g
Salmonella typhimurium; 25 g./ton in feed
  Survival Ratio: 34/36
  Final Avg. Chicken Wt.: 117 g
Salmonella typhimurium; 50 g./ton in feed
  Survival Ratio: 36/36
  Final Avg. Chicken Wt.: 121 g
Salmonella typhimurium; 100 g./ton in feed
  Survival Ratio: 33/36
  Final Avg. Chicken Wt.: 102 g
